Values after ≈ are worked out from the molar mass of the structure shown. Read-outs that look alike come from different tables or passages of the source.
Assays:
Cyp3A4 = Cyp3A4 (Homo sapiens, UniProt P08684); test: Cyp reversible inhibition assay (human liver microsomes)
Procedure: The purpose of this assay was to determine reversible inhibition of Cyp enzyme with a given compound using a substrate probe turnover as the surrogate for inhibition. This was done with human liver microsomes rather an isolated enzyme to account for metabolites of parent drug leading to a potential drug-drug interaction through Cyp inhibition. The substrate turnover (for example conversion of midazolam to hydroxyl midazolam) was monitored by LCMSMS (Q1/Q2=342.2/203.2). Test compounds were tested in a 7-point dose response curve starting from 50 μM to 50 nM (˜3-fold dilution series).
The detailed protocol was as follows: • Prepared test compounds and standard inhibitors working solution (100×) • Pulled microsomes out of the −80° C. freezer to thaw on ice, labeled with the date and put back to freezer immediately after using. • Added 20 μL of the substrate solutions to corresponding wells. • Added 20 μL PB to Blank wells. • Added 2 μL of the test compounds and positive control working solution to corresponding wells. • Added 2 μL MeOH to No Inhibitor wells and Blank wells. • Prepared HLM working solution. • Added 158 μL of the HLM working solution to all wells of incubation plate. • Pre-warmed the plate for about 10 min at 37° C. water bath. • Prepared NADPH cofactor solution. • Added 20 μL NADPH cofactor to all incubation wells. • Mixed and incubated for 10 minutes at 37° C. water bath. • At the time point, terminated the reaction by adding 400 μL cold stop solution (200 ng/mL Tolbutamide in ACN). • Centrifuged the samples at 4000 rpm for 20 minutes to precipitate protein. • Transferred 200 μL supernatant to 200 μL HPLC water and shook for 10 min. • Analyzed samples by LC/MS/MS.

[1] = system: fibroblast to myofibroblast transdifferentiation (primary human lung fibroblasts and primary rodent HSCs); test: High content imaging and western based assay of fibroblast to myofibroblast transdifferentiation (α-SMA); type: cell-based; conditions: graded, TGF-β induced fibroblast to myofibroblast transdifferentiation
Description: A high content imaging assay, based on α-SMA staining and cell morphological changes associated with fibroblast to myofibroblast transdifferentiation, was established using primary human lung fibroblasts and primary rodent HSCs. Conditions, involving serum starvation and subsequent TGF-β treatment, were identified that facilitate robust in vitro transdifferentiation in a miniaturized (384 well plate) format that is amenable to high throughput small molecule screening. A selective ALK-5 TGF-β1 receptor inhibitor (SB-431542) was used as a positive control. […] This assay was used to identify a hit compound (itraconazole) and was used to evaluate focused panels of itraconazole analogues generated from medicinal chemistry efforts.
The activity of Itraconazole and its analogues was confirmed by analyzing changes in gene expression of multiple genes associated with fibroblast to myofibroblast transdifferentiation using biochemical methods (i.e., Western blot and RT-PCR). These 4-day assays were used to evaluate sets of 6 compounds at a time in 4-point dose response fashion.
After 24 hour incubation, cells were treated with the indicated doses of itraconazole for 48 hours in the presence of 10 ng/mL of TGF-β1 in hepatic stellate medium. Following fixation and staining with an anti smooth muscle actin antibody, cell morphology was analyzed with a Cellomics cell insight imaging reader (FIG. 1 for representative images). Cells were analyzed for mean cellular area of a-SMA staining (FIG. 5a) or mean fluorescence intensity of SMA staining (FIG. 5b).
After 24 incubation, medium was changed to assay medium containing TGF-β1 (10 ng/mL) and simultaneously treated with itraconazole (10 μM), SB431542 (10 μM) or vehicle control (FIG. 6).

[2] = system: Candida albicans (ATCC 10231); test: Candida albicans anti-fungal MIC potency determination; type: cell-based
Procedure: The wild type Candida albicans (ATCC 10231) was used and Fluconazole, amphotericin B, itraconazole and terbinafine were purchased from Sigma and used as positive controls.
The highest assay concentration for all test compounds and fluconazole was 100 μM. Fluconazole was also tested at the highest concentration of 64 μg/ml, and amphotercin B and terbinafine at 16 and 64 μg/ml. The test compounds were in DMSO stock solution at a concentration of 10 mM. Two stock solutions in DMSO were prepared for fluconazole at 10 mM and 6.4 mg/ml. Amphotericin B and terbinafine stock solutions in DMSO were prepared at 1.6 and 6.4 mg/ml.
Serial dilution of 100× stock solutions: 4 μl of stock solution was added into 196 μl of RPMI1640 (MOPS buffered and free of HEPES and sodium bicarbonate) in the first well of a row of a sterile u-bottom 96-well plate. The rest of the wells was filled with 100 μl RPMI1640. The 2-fold serial dilution was made sequentially by transferring 100 μl solution to the next well and mixing by pipetting, until 11th well. The extra 100 μl in 11th well was discarded. Therefore, the compound wells contained 100 μl of 2× of testing concentrations of drugs in RPMI1640. The 12th well was filled with only 100 μl RPMI1640.
C. albicans 3147 (ATCC 10231) glycerol frozen stock was streaked on Sabouraud dextrose agar (SDA). The plate was incubated at 35° C. ambient atmosphere for 20 h. Single colonies were suspended into sterile saline until turbidity reached 0.1 (1-5×10^6 CFU/ml) using a Siemens turbidity meter. This suspension was diluted 50× in RPMI1640 in a 15 ml conical, and then it was further diluted 20× in RPMI1640 in a 50 ml conical. This gave 1-5×10^3 CFU/ml suspension and was used as inoculum. The cell density in inoculum was plate-counted to be 4.94×10^3 CFU/ml.
The plates were incubated at 35° C. in ambient atmosphere. The photos were taken at 24 h and 48 h. The MIC end points for fluconazole and amphotericin B were read according to the M27-A3 protocol (Reference Method for Broth Dilution Antifungal Susceptibility Testing of Yeasts; Approved Standard-Third Edition, M27-A3 standard published Jan. 1, 2008 by Clinical and Laboratory Standards Institute). The MIC for compounds for test cmpds and terbinafine (not mentioned in M27-A3 protcol) were read as if they were azoles.

[3] = Cyp 3A4 testosterone LCMS IC50, human liver microsomes, substrate testosterone
[4] = Cyp 3A4 midazolam LCMS IC50, human liver microsomes, substrate midazolam
[5] = ATCC10231, 24 h, read-out: C. Albicans MIC90 at 24 h
[6] = ATCC10231, 48 h, read-out: C. Albicans MIC90 at 48 h

Cyp3A4, sequence (P08684 whole entry): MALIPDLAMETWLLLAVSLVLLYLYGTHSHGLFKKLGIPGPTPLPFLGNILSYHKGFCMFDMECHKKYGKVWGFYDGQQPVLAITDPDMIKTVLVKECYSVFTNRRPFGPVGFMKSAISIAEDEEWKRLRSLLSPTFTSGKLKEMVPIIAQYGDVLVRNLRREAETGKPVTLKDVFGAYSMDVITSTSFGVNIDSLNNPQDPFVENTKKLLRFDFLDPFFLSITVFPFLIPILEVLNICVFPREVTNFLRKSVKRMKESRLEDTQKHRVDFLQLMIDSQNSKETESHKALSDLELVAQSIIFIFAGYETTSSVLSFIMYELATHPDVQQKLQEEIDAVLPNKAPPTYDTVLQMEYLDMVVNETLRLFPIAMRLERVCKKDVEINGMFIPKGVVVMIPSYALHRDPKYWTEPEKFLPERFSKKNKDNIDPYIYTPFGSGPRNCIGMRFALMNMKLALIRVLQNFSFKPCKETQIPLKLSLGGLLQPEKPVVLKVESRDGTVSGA

| Compound | IC50 (Cyp3A4; [3]) [µM] | EC50 [1] [µM] | IC50 (Cyp3A4; [4]) [µM] | MIC90 [2, 5] [µM] | MIC90 [2, 6] [µM] |
| --- | --- | --- | --- | --- | --- |
| CCC(C)n1cnn(-c2ccc(N3CCN(c4ccc(OC[C@@H]5CO[C@@](Cn6cncn6)(c6ccc(F)cc6F)O5)cc4)CC3)cc2)c1=O (mixture of isomers) [Compound 1] | 4.5 | 0.5 to 5 |  |  |  |
| CCC(C)n1cnn(-c2ccc(N3CCN(c4ccc(OC[C@@H]5CO[C@@](Cn6ccnn6)(c6ccc(F)cc6F)O5)cc4)CC3)cc2)c1=O (some centres unmarked) [Compound 2] | > 30 | 0.5 to 5 |  |  |  |
| CCC(C)n1ncn(-c2ccc(N3CCN(c4ccc(OC[C@@H]5CO[C@@](Cn6ccnc6)(c6ccc(Cl)cc6Cl)O5)cc4)CC3)cc2)c1=O (some centres unmarked) [Compound 19] | 0.0069 | 0.5 to 5 | 0.0031 | 0.195 (≈ 0.137 µg/mL) | 0.195 (≈ 0.137 µg/mL) |
| CCC(C)n1ncn(-c2ccc(N3CCN(c4ccc(OC[C@@H]5CO[C@@](Cc6cncnc6)(c6ccc(Cl)cc6Cl)O5)cc4)CC3)cc2)c1=O (some centres unmarked) [Compound 21] | 0.12 | 0.5 to 5 | 0.144 | > 100 | > 100 |
| CCC(C)n1ncn(-c2ccc(N3CCN(c4ccc(OC[C@@H]5CO[C@@](Cc6ccncc6)(c6ccc(Cl)cc6Cl)O5)cc4)CC3)cc2)c1=O (some centres unmarked) [Compound 23] |  | < 0.5 | 0.321 | > 100 | > 100 |
| CCC(C)n1ncn(-c2ccc(N3CCN(c4ccc(OC[C@@H]5CO[C@@](Cn6nccn6)(c6ccc(Cl)cc6Cl)O5)cc4)CC3)nc2)c1=O (some centres unmarked) [Compound 24] | > 30 | 0.5 to 5 |  |  |  |
| CCC(C)n1ncn(-c2ccc(N3CCN(c4ccc(OC[C@@H]5CO[C@@](Cc6cccnc6)(c6ccc(Cl)cc6Cl)O5)cc4)CC3)cc2)c1=O (some centres unmarked) [Compound 26] | 0.283 | 0.5 to 5 | 0.18 | > 100 | > 100 |
| CCC(C)n1ncn(-c2ccc(N3CCN(c4ccc(OC[C@@H]5CO[C@@](Cn6cccn6)(c6ccc(Cl)cc6Cl)O5)cc4)CC3)cc2)c1=O (some centres unmarked) [Compound 27] | > 50 | 5 to 30 | > 50 | > 100 | > 100 |
| CCC(C)n1ncn(-c2ccc(N3CCN(c4ccc(OC[C@@H]5CO[C@@](Cn6nccn6)(c6ccc(Cl)cc6)O5)cc4)CC3)cc2)c1=O (some centres unmarked) [Compound 30] | > 50 | 0.5 to 5 | > 50 | > 100 | > 100 |
| CCC(C)n1ncn(-c2ccc(N3CCN(c4ccc(OC[C@@H]5CO[C@@](Cn6nccn6)(c6ccccc6Cl)O5)cc4)CC3)cc2)c1=O (some centres unmarked) [Compound 32] | > 50 | 5 to 30 | > 50 | > 100 | > 100 |
| CCC(C)n1ncn(-c2ccc(N3CCN(c4ccc(OC[C@@H]5CO[C@@](Cn6nccn6)(c6ccc(Cl)c(Cl)c6)O5)cc4)CC3)cc2)c1=O (some centres unmarked) [Compound 36] | > 50 | 5 to 30 | > 50 | > 100 | > 100 |
| CCC(C)n1ncn(-c2ccc(N3CCN(c4ccc(OC[C@@H]5CO[C@@](Cn6nccn6)(c6ccccc6C)O5)cc4)CC3)cc2)c1=O (some centres unmarked) [Compound 41] | > 50 | 0.5 to 5 | > 50 | > 100 | > 100 |
| CCC(C)n1ncn(-c2ccc(N3CCN(c4ccc(OC[C@@H]5CO[C@@](Cn6nccn6)(c6ccc(Cl)cc6Cl)O5)c(F)c4)CC3)cc2)c1=O (some centres unmarked) [Compound 49] | > 50 | 0.5 to 5 | > 50 | > 100 | > 100 |
| CCC(C)n1ncn(-c2ccc(N3CCN(c4ccc(OC[C@@H]5CO[C@@](Cn6nccn6)(c6ccccc6C#N)O5)cc4)CC3)cc2)c1=O (some centres unmarked) [Compound 74] | > 50 | 0.5 to 5 | > 50 |  |  |
| CCc1cc(OC[C@@H]2CO[C@@](Cn3nccn3)(c3ccc(Cl)cc3Cl)O2)ccc1N1CCN(c2ccc(-n3cnn(C(C)CC)c3=O)cc2)CC1 (some centres unmarked) [Compound 81] |  | 5 to 30 |  |  |  |
| CCC(C)n1ncn(-c2ccc(N3CCN(c4ccc(OC[C@@H]5CO[C@@](Cn6nccn6)(c6cccnc6)O5)cc4)CC3)cc2)c1=O (some centres unmarked) [Compound 82] |  | 5 to 30 |  |  |  |
| CCC(C)n1ncn(-c2ccc(N3CCN(c4ccc(OC[C@@H]5CO[C@@](Cn6nccn6)(c6ccncc6)O5)cc4)CC3)cc2)c1=O (some centres unmarked) [Compound 83] |  | 5 to 30 |  |  |  |
| CCC(C)n1ncn(-c2ccc(N3CCN(c4ccc(OC[C@@H]5CO[C@@](Cn6nccn6)(C6CCC6)O5)cc4)CC3)cc2)c1=O (some centres unmarked) [Compound 88] |  | 0.5 to 5 |  |  |  |
| CCC(C)n1ncn(-c2ccc(N3CCN(c4ccc(OC[C@@H]5CO[C@@](Cn6nccn6)(C(C)C)O5)cc4)CC3)cc2)c1=O (some centres unmarked) [Compound 90] |  | 5 to 30 |  |  |  |
| CCC(C)n1ncn(-c2ccc(N3CCN(c4ccc(OC[C@@H]5CO[C@@](Cn6nccn6)(C6CCOCC6)O5)cc4)CC3)cc2)c1=O (some centres unmarked) [Compound 92] |  | 5 to 30 |  |  |  |
| CCC(C)n1ncn(-c2ccc(N3CCN(c4ccc(OC[C@@H]5CO[C@@](Cn6nccn6)(C6CCNCC6)O5)cc4)CC3)cc2)c1=O (some centres unmarked) [Compound 93] |  | 5 to 30 |  |  |  |
| CCC(C)n1ncn(-c2ccc(N3CCN(c4ccc(OC[C@@H]5CO[C@@](CCCn6cncn6)(c6ccc(Cl)cc6Cl)O5)cc4)CC3)cc2)c1=O (some centres unmarked) [Compound 101] |  | 5 to 30 |  | > 100 | > 100 |
